Data set [1] has as its system HepG2.2.15 cells. The experiment in a line: Cytotoxicity determination in HepG2.2.15 cells (CCK-8). The conditions noted are these: HepG2.2.15 cells, 5,000 cells/well, 6 days of compound treatment, CCK-8 absorbance 450 nm, highest concentration 100 uM. In kind it is cell-based. As for the experimental part:
(§1) • HepG2.2.15 (the HepG2.2.15 cell line can be produced by transfection of the HepG2 cell line as described in Sells, Chen, and Acs 1987 (Proc. Natl. Acad. Sci. USA 84: 1005-1009), and the HepG2 cell line is available from ATCC® under number HB-8065™)
(§2) Seed the cell HepG2.2.15 cells into 96-well plate in 2% FBS culture medium at the density of 40,000 cells/well and 5,000 cells/well for HBV inhibitory activity and cytotoxicity determination, respectively. After seeding, incubate the cell plates at 37° C., 5% CO2 overnight. The next day, medium containing compounds is added to the cell to treat the cells for 6 days with medium refreshed once in the middle of the treatment. 8 dose points with 3 folds dilution of each compound were adopted and the highest concentration of the compounds is 10 uM and 100 uM for HBV inhibitory activity and cytotoxicity determination, respectively.
After 6 days of compounds treatment, add 20 μl CCK-8 reagents to each well of cytotoxicity assay plates, incubate the plate at 37° C., 5% CO2 for 2.5 h and measure the absorbance at 450 nm wavelength, at the same time read the absorbance at 630 nm wavelength as reference.
(§3) EC50 and CC50 values are calculated by the GRAPHPAD PRISM software.

The subject of data set [2] is HBV. The experiment in a line: HBV inhibitory activity in HepG2.2.15 cells (HBV DNA in culture medium by q-PCR). Type of data set: cell-based. The conditions noted are these: HepG2.2.15 cells, 40,000 cells/well, 6 days of compound treatment, HBV DNA in culture medium by q-PCR, highest concentration 10 uM, read-out: EC50. The protocol: as §1, §2
The HBV DAN change in the cell culture medium induced by the compounds is measured by q-PCR method. Briefly, the HBV DNA in the culture medium is extracted using QIAamp 96 DNA Blood Kit according to the manual and then quantified by q-PCR using the primers and probe in the table below.
as §3

The mark [3] stands for this setting: Hepatitis B virus, HepG2.2.15, 144 h.

pEC50: −log10 of the molar value. Read-outs that look alike come from different tables or passages of the source.

This is an account of results in patent US20210220356A1, “DIHYDROPYRIMIDINE DERIVATIVES AND USES THEREOF IN THE TREATMENT OF HBV INFECTION OR OF HBV-INDUCED DISEASES” (Janssen Sciences Ireland Unlimited Company, priority 2018, published 2021).

As a reminder, the CC50 is the concentration that lowers cell viability or growth by half. What is called pEC50 is the negative decadic logarithm of the EC50, by convention in mol/L.

For `COC(=O)C1=C(C2CCc3[nH]ncc3C2)NC(c2nccs2)=NC1c1ccc(F)c(F)c1Cl` (single isomer, unassigned) [Compound 65b, Methyl 4-(2-chloro-3,4-difluorophenyl)-6-(4,5,6,7-tetrahydro-1H-indazol-5-yl)-2-(thiazol-2-yl)-1,4-dihydropyrimidine-5-carboxylate], in data set [1], it took 6.3 µM to reach half-maximal cytotoxicity (CC50). The pEC50 in data set [2] is 5.57.
In the same order, the values of `CCOC(=O)C1=C(C2CCc3nn(CCC(=O)O)cc3C2)NC(c2nccs2)=NC1c1ccc(F)cc1C` (single isomer, unassigned) [Compound 38c, 3-(5-(5-(Ethoxycarbonyl)-6-(4-fluoro-2-methylphenyl)-2-(thiazol-2-yl)-3,6-dihydropyrimidin-4-yl)-4,5,6,7-tetrahydro-2H-indazol-2-yl)propanoic acid] are 19.6 µM and 7.84.
In the same order, the values of `CCOC(=O)C1=C(C2CCc3nc(CCC(=O)O)sc3C2)NC(c2nccs2)=NC1c1ccc(F)c(F)c1Cl` (single isomer, unassigned) [Compound 60c, 3-(6-(6-(2-Chloro-3,4-difluorophenyl)-5-(ethoxycarbonyl)-2-(thiazol-2-yl)-3,6-dihydropyrimidin-4-yl)-4,5,6,7-tetrahydrobenzo[d]thiazol-2-yl)propanoic acid] are 5.5 µM and 7.87.
In the same order, the values of `CCOC(=O)C1=C(C2CCc3sc(CCC(=O)O)nc3C2)NC(c2nccs2)=NC1c1ccc(F)c(F)c1Cl` (single isomer, unassigned) [Compound 59f, 3-(5-(6-(2-Chloro-3,4-difluorophenyl)-5-(ethoxycarbonyl)-2-(thiazol-2-yl)-3,6-dihydropyrimidin-4-yl)-4,5,6,7-tetrahydrobenzo[d]thiazol-2-yl)propanoic acid] are 5.8 µM and 6.68.
Regarding `COC(=O)C1=C(C2CCc3nn(CCC(=O)O)cc3C2)NC(c2nccs2)=NC1c1ccc(F)cc1Br` (single isomer, unassigned) [Compound 48d, 3-(5-(6-(2-Bromo-4-fluorophenyl)-5-(methoxycarbonyl)-2-(thiazol-2-yl)-3,6-dihydropyrimidin-4-yl)-4,5,6,7-tetrahydro-2H-indazol-2-yl)propanoic acid], the CC50 in data set [1] was 34.3 µM. The pEC50 in data set [2] is 7.52.
In the same order, the values of `CCOC(=O)C1=C(C2CCc3nn(CC(=O)O)cc3C2)NC(c2nccs2)=NC1c1ccc(F)c(F)c1Cl` (single isomer, unassigned) [Compound 49c] are 25.4 µM and 6.96.
In the same order, the values of `CCOC(=O)C1=C(C2CCc3nn(CCC(=O)O)cc3C2)NC(c2nccs2)=NC1c1ccc(F)c(F)c1Br` (single isomer, unassigned) [Compound 36b, 3-(5-(6-(2-Bromo-3,4-difluorophenyl)-5-(ethoxycarbonyl)-2-(thiazol-2-yl)-3,6-dihydropyrimidin-4-yl)-4,5,6,7-tetrahydro-2H-indazol-2-yl)propanoic acid] are 11.7 µM and 7.02.
In the same order, the values of `CCOC(=O)C1=C(C2CCc3cn(CCC(=O)O)nc3C2)NC(c2nccs2)=NC1c1ccc(F)c(F)c1Cl` (single isomer, unassigned) [Compound 61c, 3-(6-(6-(2-Chloro-3,4-difluorophenyl)-5-(ethoxycarbonyl)-2-(thiazol-2-yl)-3,6-dihydropyrimidin-4-yl)-4,5,6,7-tetrahydro-2H-indazol-2-yl)propanoic acid] are 29 µM and 6.90.
As for `CCOC(=O)C1=C(C2CCc3nc(CCC(=O)O)oc3C2)NC(c2nccs2)=NC1c1ccc(F)c(F)c1Cl` (single isomer, unassigned) [Compound 58d, 3-(6-(6-(2-Chloro-3,4-difluorophenyl)-5-(ethoxycarbonyl)-2-(thiazol-2-yl)-3,6-dihydropyrimidin-4-yl)-4,5,6,7-tetrahydrobenzo[d]oxazol-2-yl)propanoic acid], in data set [1], the CC50 amounted to 10.8 µM. In data set [2], the pEC50 was 8.04.
In the same order, the values of `CCOC(=O)C1=C(C2CCc3nn(CC(C)(C)C(=O)O)cc3C2)NC(c2nccs2)=NC1c1ccc(F)c(F)c1Cl` (single isomer, unassigned) [Compound 53c, 3-(5-(6-(2-Chloro-3,4-difluorophenyl)-5-(ethoxycarbonyl)-2-(thiazol-2-yl)-3,6-dihydropyrimidin-4-yl)-4,5,6,7-tetrahydro-2H-indazol-2-yl)-2,2-dimethylpropanoic acid] are 10.9 µM and over 8.34.
In the same order, the values of `COC(=O)C1=C(C2CCc3nc([C@H]4C[C@H](C(=O)O)C4)sc3C2)NC(c2nccs2)=NC1c1ccc(F)c(F)c1Cl` (single isomer, unassigned) [Compound 68c, (trans)-3-(6-(-6-(2-chloro-3,4-difluorophenyl)-5-(methoxycarbonyl)-2-(thiazol-2-yl)-3,6-dihydropyrimidin-4-yl)-4,5,6,7-tetrahydrobenzo[d]thiazol-2-yl)cyclobutanecarboxylic acid] are 3.6 µM and 8.19.
In the same order, the values of `CCOC(=O)C1=C(C2CCc3nn(CCC(=O)O)cc3C2)NC(c2nccs2)=NC1c1cccc(F)c1Br` (single isomer, unassigned) [Compound 42d, 3-(5-(6-(2-bromo-3-fluorophenyl)-5-(ethoxycarbonyl)-2-(thiazol-2-yl)-3,6-dihydropyrimidin-4-yl)-4,5,6,7-tetrahydro-2H-indazol-2-yl)propanoic acid] are 12.7 µM and 7.62.
`COC(=O)C1=C(C2CCc3nc([C@H]4C[C@H](C(=O)O)C4)sc3C2)NC(c2nccs2)=NC1c1ccc(F)c(F)c1Cl` (single isomer, unassigned) [Compound 68b, (trans)-3-(-6-(-6-(2-chloro-3,4-difluorophenyl)-5-(methoxycarbonyl)-2-(thiazol-2-yl)-3,6-dihydropyrimidin-4-yl)-4,5,6,7-tetrahydrobenzo[d]thiazol-2-yl)cyclobutanecarboxylic acid]: the CC50 in data set [1] is 8.3 µM. The pEC50 in data set [2] (setting [3]) is 8.05.
In the same order, the values of `COC(=O)C1=C(C2CCc3nc([C@H]4CC[C@H](C(=O)O)CC4)oc3C2)NC(c2nccs2)=NC1c1ccc(F)c(F)c1Cl` (single isomer, unassigned) [Compound 86b, (trans)-4-(6-(6-(2-chloro-3,4-difluorophenyl)-5-(methoxycarbonyl)-2-(thiazol-2-yl)-3,6-dihydropyrimidin-4-yl)-4,5,6,7-tetrahydrobenzo[d]oxazol-2-yl)cyclohexanecarboxylic acid] are 8.7 µM and 7.19.
`COC(=O)C1=C(C2CCc3nn(CCCC(=O)O)cc3C2)NC(c2nccs2)=NC1c1ccc(F)c(F)c1Cl` (single isomer, unassigned) [Compound 74c, 4-(5-(6-(2-chloro-3,4-difluorophenyl)-5-(methoxycarbonyl)-2-(thiazol-2-yl)-3,6-dihydropyrimidin-4-yl)-4,5,6,7-tetrahydro-2H-indazol-2-yl)butanoic acid] showed a CC50 in data set [1] of 18.2 µM. Moreover, the negative logarithm of the EC50 (pEC50) in data set [2] is 8.04.
